Assays:
[1] = system: antibodies in sera from SARS patients (sera 1a, 1b, 2, 6, 37, 62, London, SARS-yellow, SARS-green); format: binding, human; parameters: Binding of serum 6 to linear peptides of protein X1 of SARS-CoV Urbani / Binding of serum 37 to linear peptides of protein X1 of SARS-CoV Urbani / Binding of serum 6 to looped/cyclic peptide (PEPSCAN-ELISA) / Binding of serum 37 to looped/cyclic peptide (PEPSCAN-ELISA) / Binding of serum 37 to looped/cyclic peptides of protein X1 of SARS-CoV Urbani / Binding of serum 6 to linear peptides of protein X2 / Binding of serum 37 to linear peptides of protein X2 / Binding of serum 37 to looped/cyclic peptides of protein X2 of SARS-CoV Urbani / Binding of serum 6 to linear peptides of protein M of SARS-CoV Urbani / Binding of serum 37 to linear peptides of protein M of SARS-CoV Urbani / Binding of serum 6 to looped/cyclic peptides of protein M of SARS-CoV Urbani / Binding of serum 37 to looped/cyclic peptides of protein M of SARS-CoV Urbani / Binding of serum 6 to linear peptides of protein X3 of SARS-CoV Urbani / Binding of serum 37 to linear peptides of protein X3 of SARS-CoV Urbani / Binding of serum 37 to looped/cyclic peptides of protein X3 of SARS-CoV Urbani / Binding of serum 6 to linear peptides of protein X4 of SARS-CoV Urbani / Binding of serum 37 to linear peptides of protein X4 of SARS-CoV Urbani / Binding of serum 37 to looped/cyclic peptides of protein X4 of SARS-CoV Urbani / Binding of serum 6 to linear peptides of protein X5 of SARS-CoV Urbani / Binding of serum 37 to linear peptides of protein X5 of SARS-CoV Urbani / Binding of serum 37 to looped/cyclic peptides of protein X5 of SARS-CoV Urbani / Binding of serum 6 to linear peptides of protein N of SARS-CoV Urbani / Binding of serum 37 to linear peptides of protein N of SARS-CoV Urbani / Binding of serum 6 to linear peptide (PEPSCAN-ELISA) / Binding of serum 1a to looped/cyclic peptides of protein N of SARS-CoV Urbani / Binding of serum 1b to looped/cyclic peptides of protein N of SARS-CoV Urbani / Binding of serum 2 to looped/cyclic peptides of protein N of SARS-CoV Urbani / Binding of serum 6 to looped/cyclic peptides of protein N of SARS-CoV Urbani / Binding of serum 37 to looped/cyclic peptides of protein N of SARS-CoV Urbani / Binding of serum 62 to looped/cyclic peptides of protein N of SARS-CoV Urbani / Binding of serum London to looped/cyclic peptides of protein N of SARS-CoV Urbani / Binding of serum SARS-green to looped/cyclic peptides of protein N of SARS-CoV Urbani: unit not given here
[2] = system: control sera (pooled serum of ten healthy LUMC hospital workers; commercial negative donor pooled serum from the Dutch bloodbank); format: binding, human; parameters: Binding of Control serum LUMC to linear peptides / Binding of Control serum Blood-bank to linear peptides / Binding of Control serum LUMC to looped peptides / Binding of Control Serum Blood-Bank to Looped peptides / Binding of Control serum LUMC to linear peptides of the protein M of SARS-CoV Urbani / Binding of Control serum Blood-bank to linear peptides of the protein M of SARS-CoV Urbani / Binding of Control serum LUMC to looped peptides of the protein M of SARS-CoV Urbani / Binding of Control Serum Blood-Bank to Looped peptides of the protein M of SARS-CoV Urbani: unit not given here
[3] = system: rabbit serum obtained by immunizing a rabbit with the SARS-CoV strain Frankfurt 1; format: binding; parameters: Binding of a rabbit serum to linear peptides / Binding of a rabbit serum to looped peptides / Rabbit serum linear peptides / Rabbit serum looped peptides / Binding of a rabbit serum to linear peptides of protein N of SARS-CoV Urbani (Rabbit serum linear peptides) / Binding of a rabbit serum to looped/cyclic peptides of protein N of SARS-CoV Urbani (Rabbit serum looped peptides): unit not given here

## IQQWIQFMMSRRRLL
[1]
  Binding of serum 1a to linear peptides of protein X2: 0.6
  Binding of serum 1a to looped/cyclic peptides of protein X2 of SARS-CoV Urbani: 0.4
  Binding of serum 1b to linear peptides of protein X2: 0.5
  Binding of serum 1b to looped/cyclic peptides of protein X2 of SARS-CoV Urbani: 0.4
  Binding of serum 2 to linear peptides of protein X2: 0.4
  Binding of serum 2 to looped/cyclic peptides of protein X2 of SARS-CoV Urbani: 0.5
  Binding of serum 6 to linear peptides of protein X2: 0.6
  Binding of serum 6 to looped/cyclic peptides of protein X2 of SARS-CoV Urbani: 0.4
  Binding of serum 37 to linear peptides of protein X2: 0.6
  Binding of serum 37 to looped/cyclic peptides of protein X2 of SARS-CoV Urbani: 0.5
  Binding of serum 62 to linear peptides of protein X2: 0.5
  Binding of serum 62 to looped/cyclic peptides of protein X2 of SARS-CoV Urbani: 0.7
  Binding of serum London to linear peptides of protein X2: 0.4
  Binding of serum London to looped/cyclic peptides of protein X2 of SARS-CoV Urbani: 0.2
  Binding of serum SARS-green to linear peptides of protein X2: 0.3
  Binding of serum SARS-green to looped/cyclic peptides of protein X2 of SARS-CoV Urbani: 0.4
  Binding of serum SARS-yellow to linear peptides of protein X2: 0.8
  Binding of serum SARS-yellow to looped/cyclic peptides of protein X2 of SARS-CoV Urbani: 0.5
[2]
  Binding of Control Serum Blood-Bank to Looped peptides: 0.5
  Binding of Control serum Blood-bank to linear peptides: 0.7
  Binding of Control serum LUMC to linear peptides: 0.5
  Binding of Control serum LUMC to looped peptides: 0.6
[3]
  Binding of a rabbit serum to linear peptides: 0.4
  Binding of a rabbit serum to looped peptides: 1.0

## IHTIDGSSGVANPAM
[1]
  Binding of serum 1a to linear peptides of protein X1 of SARS-CoV Urbani: 0.7
  Binding of serum 1a to looped/cyclic peptides of protein X1 of SARS-CoV Urbani: 0.5
  Binding of serum 1b to linear peptides of protein X1 of SARS-CoV Urbani: 0.7
  Binding of serum 1b to looped/cyclic peptides of protein X1 of SARS-CoV Urbani: 0.4
  Binding of serum 2 to linear peptides of protein X1 of SARS-CoV Urbani: 0.8
  Binding of serum 2 to looped/cyclic peptides of protein X1 of SARS-CoV Urbani: 0.3
  Binding of serum 6 to linear peptides of protein X1 of SARS-CoV Urbani: 0.5
  Binding of serum 6 to looped/cyclic peptides of protein X1 of SARS-CoV Urbani: 0.2
  Binding of serum 37 to linear peptides of protein X1 of SARS-CoV Urbani: 0.7
  Binding of serum 37 to looped/cyclic peptides of protein X1 of SARS-CoV Urbani: 0.3
  Binding of serum 62 to linear peptides of protein X1 of SARS-CoV Urbani: 0.8
  Binding of serum 62 to looped/cyclic peptides of protein X1 of SARS-CoV Urbani: 0.3
  Binding of serum London to linear peptides of protein X1 of SARS-CoV Urbani: 0.5
  Binding of serum London to looped/cyclic peptides of protein X1 of SARS-CoV Urbani: 0.2
  Binding of serum SARS-green to linear peptides of protein X1 of SARS-CoV Urbani: 0.5
  Binding of serum SARS-green to looped/cyclic peptides of protein X1 of SARS-CoV Urbani: 0.3
  Binding of serum SARS-yellow to linear peptides of protein X1 of SARS-CoV Urbani: 0.6
  Binding of serum SARS-yellow to looped/cyclic peptides of protein X1 of SARS-CoV Urbani: 0.2
[2]
  Binding of Control Serum Blood-Bank to Looped peptides: 0.4
  Binding of Control serum Blood-bank to linear peptides: 0.7
  Binding of Control serum LUMC to linear peptides: 0.8
  Binding of Control serum LUMC to looped peptides: 0.4
[3]
  Binding of a rabbit serum to linear peptides: 0.1
  Binding of a rabbit serum to looped peptides: 0.5

## GNTYSTAWLCALGKV
[1]
  Binding of serum 1a to linear peptides of protein X5 of SARS-CoV Urbani: 0.8
  Binding of serum 1a to looped/cyclic peptides of protein X5 of SARS-CoV Urbani: 0.4
  Binding of serum 1b to linear peptides of protein X5 of SARS-CoV Urbani: 0.6
  Binding of serum 1b to looped/cyclic peptides of protein X5 of SARS-CoV Urbani: 0.2
  Binding of serum 2 to linear peptides of protein X5 of SARS-CoV Urbani: 0.9
  Binding of serum 2 to looped/cyclic peptides of protein X5 of SARS-CoV Urbani: 0.5
  Binding of serum 6 to linear peptides of protein X5 of SARS-CoV Urbani: 0.6
  Binding of serum 6 to looped/cyclic peptides of protein X5 of SARS-CoV Urbani: 0.3
  Binding of serum 37 to linear peptides of protein X5 of SARS-CoV Urbani: 0.7
  Binding of serum 37 to looped/cyclic peptides of protein X5 of SARS-CoV Urbani: 0.5
  Binding of serum 62 to linear peptides of protein X5 of SARS-CoV Urbani: 0.8
  Binding of serum 62 to looped/cyclic peptides of protein X5 of SARS-CoV Urbani: 0.7
  Binding of serum London to linear peptides of protein X5 of SARS-CoV Urbani: 0.7
  Binding of serum London to looped/cyclic peptides of protein X5 of SARS-CoV Urbani: 0.2
  Binding of serum SARS-green to linear peptides of protein X5 of SARS-CoV Urbani: 0.6
  Binding of serum SARS-green to looped/cyclic peptides of protein X5 of SARS-CoV Urbani: 0.3
  Binding of serum SARS-yellow to linear peptides of protein X5 of SARS-CoV Urbani: 0.4
  Binding of serum SARS-yellow to looped/cyclic peptides of protein X5 of SARS-CoV Urbani: 0.5
[2]
  Binding of Control Serum Blood-Bank to Looped peptides: 0.4
  Binding of Control serum Blood-bank to linear peptides: 0.9
  Binding of Control serum LUMC to linear peptides: 0.5
  Binding of Control serum LUMC to looped peptides: 0.6
[3]
  Rabbit serum linear peptides: 0.9
  Rabbit serum looped peptides: 0.6

## YVVVHGYFTEVYYQL
[1]
  Binding of serum 1a to linear peptides of protein X1 of SARS-CoV Urbani: 0.7
  Binding of serum 1a to looped/cyclic peptides of protein X1 of SARS-CoV Urbani: 0.6
  Binding of serum 1b to linear peptides of protein X1 of SARS-CoV Urbani: 0.6
  Binding of serum 1b to looped/cyclic peptides of protein X1 of SARS-CoV Urbani: 0.5
  Binding of serum 2 to linear peptides of protein X1 of SARS-CoV Urbani: 0.5
  Binding of serum 2 to looped/cyclic peptides of protein X1 of SARS-CoV Urbani: 0.5
  Binding of serum 6 to linear peptides of protein X1 of SARS-CoV Urbani: 0.3
  Binding of serum 6 to looped/cyclic peptides of protein X1 of SARS-CoV Urbani: 0.3
  Binding of serum 37 to linear peptides of protein X1 of SARS-CoV Urbani: 0.5
  Binding of serum 37 to looped/cyclic peptides of protein X1 of SARS-CoV Urbani: 0.4
  Binding of serum 62 to linear peptides of protein X1 of SARS-CoV Urbani: 0.4
  Binding of serum 62 to looped/cyclic peptides of protein X1 of SARS-CoV Urbani: 0.4
  Binding of serum London to linear peptides of protein X1 of SARS-CoV Urbani: 0.2
  Binding of serum London to looped/cyclic peptides of protein X1 of SARS-CoV Urbani: 0.2
  Binding of serum SARS-green to linear peptides of protein X1 of SARS-CoV Urbani: 0.1
  Binding of serum SARS-green to looped/cyclic peptides of protein X1 of SARS-CoV Urbani: 0.2
  Binding of serum SARS-yellow to linear peptides of protein X1 of SARS-CoV Urbani: 0.2
  Binding of serum SARS-yellow to looped/cyclic peptides of protein X1 of SARS-CoV Urbani: 0.4
[2]
  Binding of Control Serum Blood-Bank to Looped peptides: 0.5
  Binding of Control serum Blood-bank to linear peptides: 0.4
  Binding of Control serum LUMC to linear peptides: 1.0
  Binding of Control serum LUMC to looped peptides: 0.9
[3]
  Binding of a rabbit serum to linear peptides: 0.1
  Binding of a rabbit serum to looped peptides: 0.5

## LLKEPCPSGTYEGNS
[1]
  Binding of serum 1a to linear peptides of protein X4 of SARS-CoV Urbani: 0.8
  Binding of serum 1a to looped/cyclic peptides of protein X4 of SARS-CoV Urbani: 0.8
  Binding of serum 1b to linear peptides of protein X4 of SARS-CoV Urbani: 0.6
  Binding of serum 1b to looped/cyclic peptides of protein X4 of SARS-CoV Urbani: 0.6
  Binding of serum 2 to linear peptides of protein X4 of SARS-CoV Urbani: 0.3
  Binding of serum 2 to looped/cyclic peptides of protein X4 of SARS-CoV Urbani: 0.6
  Binding of serum 6 to linear peptides of protein X4 of SARS-CoV Urbani: 0.6
  Binding of serum 6 to looped/cyclic peptides of protein X4 of SARS-CoV Urbani: 0.7
  Binding of serum 37 to linear peptides of protein X4 of SARS-CoV Urbani: 0.6
  Binding of serum 37 to looped/cyclic peptides of protein X4 of SARS-CoV Urbani: 0.7
  Binding of serum 62 to linear peptides of protein X4 of SARS-CoV Urbani: 0.8
  Binding of serum 62 to looped/cyclic peptides of protein X4 of SARS-CoV Urbani: 0.5
  Binding of serum London to linear peptides of protein X4 of SARS-CoV Urbani: 0.8
  Binding of serum London to looped/cyclic peptides of protein X4 of SARS-CoV Urbani: 0.3
  Binding of serum SARS-green to linear peptides of protein X4 of SARS-CoV Urbani: 0.5
  Binding of serum SARS-green to looped/cyclic peptides of protein X4 of SARS-CoV Urbani: 0.7
  Binding of serum SARS-yellow to linear peptides of protein X4 of SARS-CoV Urbani: 0.2
  Binding of serum SARS-yellow to looped/cyclic peptides of protein X4 of SARS-CoV Urbani: 0.2
[2]
  Binding of Control Serum Blood-Bank to Looped peptides: 0.6
  Binding of Control serum Blood-bank to linear peptides: 0.6
  Binding of Control serum LUMC to linear peptides: 0.6
  Binding of Control serum LUMC to looped peptides: 0.8
[3]
  Rabbit serum linear peptides: 0.3
  Rabbit serum looped peptides: 0.1

— patent US20070128217A1 (priority 2003, published 2007)
